Columns and labels:
B16-F10 cells [1] = test: Flow cytometry, surface MHC-I on CRISPR-edited cells with IFNγ; assay type: cell-based, murine; details: for Surface MHC-I relative to Parental (Fig. 1c): Parental = 1.00
Experimental: Parental, CRISPR-edited or biologic-overexpressed tumour cells were seeded in a cell density of 60,000 (B16-F10), 150,000 (CT26), 100,000 (A375), or 200,000 (A549) per well in 12-well plate filled with 0.8 ml culture media + 10% FBS. After overnight incubation, the culture media were replaced with 1 ml fresh media supplemented with 10% FBS and the designated concentration of the recombinant mouse IFNγ (R&D Systems, #485-MI-100) or recombinant human IFNγ (R&D Systems, #285-IF-100). […]
Cells were dissociated from the wells with 0.25% trypsin (Gibco, 25200056). After rinsing with 0.5 ml PBS, each sample was stained with the LIVE/DEAD Fixable Aqua dead cell staining solution (Life Technologies, L34957) in 100 µl PBS (1:1000 dilution) for 15 min at 4 °C. After rinsing with 2 × 0.5 ml PBS, each sample was stained with the corresponding primary antibody-dye conjugates diluted in 100 µl Pharmingen stain buffer (BD Biosciences, #554657). After 1 h staining at 4 °C, the cells were rinsed with 2 × 2 ml Pharmingen stain buffer and fixed with 4.21% (w/w) formaldehyde (BD Biosciences, #554655). Cells were analyzed on LSRFortessa X-20 (BD Biosciences) with appropiate fluorescence compensation. The data were analyzed using FlowJo. Cells were gated based on FSC and SSC. Single cells were selected using FSC-A and FSC-H and viable cells were selected using LIVE/DEAD signal. Primary antibodies used were: H-2K^b/H-2D^b (FITC, Biolegend, #114606, 1:50 dilution), HLA-A,B,C (FITC, Biolegend, #311404, 1:100 dilution), mouse IFNGR1 (PE, Invitrogen, #12-1191-82, 1:50 dilution), human IFNGR1 (PE, Miltenyi, #130-125-851, 1:50 dilution), mouse IL1R1 (APC, Biolegend, #113509, 1:20 dilution), mouse IL6R (APC, Biolegend, #115812, 1:20 dilution), mouse IFNAR1 (APC, Biolegend, #127314, 1:20 dilution), and mouse GP130 (PE, Biolegend, #149404, 1:100 dilution).

B16-F10 cells [2] = test: Western blot, protein expression after 24 h IFNγ; assay type: cell-based, murine
Experimental: Parental, CRISPR-edited or biologic-overexpressed tumour cells were seeded in a cell density of 60,000 (B16-F10), 150,000 (CT26), 100,000 (A375), or 200,000 (A549) per well in 12-well plate filled with 0.8 ml culture media + 10% FBS. After overnight incubation, the culture media were replaced with 1 ml fresh media supplemented with 10% FBS and the designated concentration of the recombinant mouse IFNγ (R&D Systems, #485-MI-100) or recombinant human IFNγ (R&D Systems, #285-IF-100). The cells were stimulated with the cytokine for 24 h before they were harvested by trypsinization for flow cytometry, western blot, or qPCR analysis (6 h treatment).
Cells were dissociated from the wells with 0.25% trypsin (Gibco, 25200056). After rinsing with 0.5 ml PBS, the cell pellets were lysed with chilled cell lysis buffer (Cell Signaling Technology, #9803) supplemented with Halt protease inhibitor cocktail (Thermo Scientific, #78430) and phosphatase inhibitor (Sigma-Aldrich, # 4906837001) for 30 min with intermittent vortexing. The lysate was transferred into PCR-strip tubes and sonicated in a chilled water bath sonicator (QSonica). Lysates were clarified by centrifugation at 15,000 rpm at 4 °C for 15 min. Protein concentration was determined using BCA protein assay kit (Pierce, #23225). The lysates were mixed with LDS sample buffer (Life Technologies, NP0008) and sample reducing agent (Life Technologies, NP0009), followed by heating at 70 °C for 10 min to fully denature the protein. […] Membrane blots were pre-stained with total protein stain (LI-COR, # 926-11016) and imaged with Odyssey CLx. […] The blots were finally probed, for overnight at 4 °C, with the appropriate primary antibodies diluted in Intercept (TBS) blocking buffer supplemented with 0.1% (v/v) Tween-20, followed by the secondary antibodies (IRDye 800CW donkey anti-rabbit or anti-mouse IgG, LI-COR) for 1 h at room temperature. Fluorescent signals were imaged and quantified using Odyssey CLx and Image Studio v5.0. Primary antibodies used were: STUB1/CHIP (Cell Signaling Technology, #2080, 1:2000 dilution), STAT1 (Cell Signaling Technology, #14995, 1:10,000 dilution), phospho-Tyr701-STAT1 (Cell Signaling Technology, #9167, 1:2000 dilution), STAT2 (Cell Signaling Technology, #72604, 1:2000 dilution), IRF1 (Cell Signaling Technology, #8478, 1:2000 dilution), PSMB8 (Cell Signaling Technology, #13635, 1:2000 dilution), PSMB9 (Abcam, ab184172, 1:10,000 dilution), and PSMB10 (Abcam, ab183506, 1:10,000 dilution).

gStub1 #1 (guide GCATTGCTAAGAAGAAGCGC; chemistry not given here)
Surface MHC-I (Fig. 1b) (B16-F10 cells [1]; IFNg 0.01 ng/ml, replicate 1): 389 | Surface MHC-I relative to Parental (Fig. 1c) (B16-F10 cells [1]; IFNg 0.01 ng/ml, replicate 1): 1.67 | Surface MHC-I (Fig. 1b) (B16-F10 cells [1]; IFNg 0.01 ng/ml, replicate 2): 629 | Surface MHC-I relative to Parental (Fig. 1c) (B16-F10 cells [1]; IFNg 0.01 ng/ml, replicate 2): 1.88 | Surface MHC-I (Fig. 1b) (B16-F10 cells [1]; IFNg 0.01 ng/ml, replicate 3): 890 | Surface MHC-I relative to Parental (Fig. 1c) (B16-F10 cells [1]; IFNg 0.01 ng/ml, replicate 3): 2.53 | Surface MHC-I (Fig. 1b) (B16-F10 cells [1]; IFNg 0.01 ng/ml, replicate 4): 1203 | Surface MHC-I relative to Parental (Fig. 1c) (B16-F10 cells [1]; IFNg 0.01 ng/ml, replicate 4): 4.12 | Surface MHC-I (Fig. 1b) (B16-F10 cells [1]; IFNg 0.03 ng/ml, replicate 1): 1830 | Surface MHC-I relative to Parental (Fig. 1c) (B16-F10 cells [1]; IFNg 0.03 ng/ml, replicate 1): 6.85 | Surface MHC-I (Fig. 1b) (B16-F10 cells [1]; IFNg 0.03 ng/ml, replicate 2): 1489 | Surface MHC-I relative to Parental (Fig. 1c) (B16-F10 cells [1]; IFNg 0.03 ng/ml, replicate 2): 3.84 | Surface MHC-I (Fig. 1b) (B16-F10 cells [1]; IFNg 0.03 ng/ml, replicate 3): 2317 | Surface MHC-I relative to Parental (Fig. 1c) (B16-F10 cells [1]; IFNg 0.03 ng/ml, replicate 3): 4.36 | Surface MHC-I (Fig. 1b) (B16-F10 cells [1]; IFNg 0.03 ng/ml, replicate 4): 3040 | Surface MHC-I relative to Parental (Fig. 1c) (B16-F10 cells [1]; IFNg 0.03 ng/ml, replicate 4): 6.59 | Surface MHC-I (Fig. 1b) (B16-F10 cells [1]; IFNg 0.10 ng/ml, replicate 1): 1622 | Surface MHC-I relative to Parental (Fig. 1c) (B16-F10 cells [1]; IFNg 0.10 ng/ml, replicate 1): 4.52 | Surface MHC-I (Fig. 1b) (B16-F10 cells [1]; IFNg 0.10 ng/ml, replicate 2): 2825 | Surface MHC-I relative to Parental (Fig. 1c) (B16-F10 cells [1]; IFNg 0.10 ng/ml, replicate 2): 4.07 | Surface MHC-I (Fig. 1b) (B16-F10 cells [1]; IFNg 0.10 ng/ml, replicate 3): 4165 | Surface MHC-I relative to Parental (Fig. 1c) (B16-F10 cells [1]; IFNg 0.10 ng/ml, replicate 3): 3.06 | Surface MHC-I (Fig. 1b) (B16-F10 cells [1]; IFNg 0.10 ng/ml, replicate 4): 5343 | Surface MHC-I relative to Parental (Fig. 1c) (B16-F10 cells [1]; IFNg 0.10 ng/ml, replicate 4): 3.53 | Surface MHC-I (Fig. 1b) (B16-F10 cells [1]; IFNg 0.30 ng/ml, replicate 1): 3870 | Surface MHC-I relative to Parental (Fig. 1c) (B16-F10 cells [1]; IFNg 0.30 ng/ml, replicate 1): 4.44 | Surface MHC-I (Fig. 1b) (B16-F10 cells [1]; IFNg 0.30 ng/ml, replicate 2): 3946 | Surface MHC-I relative to Parental (Fig. 1c) (B16-F10 cells [1]; IFNg 0.30 ng/ml, replicate 2): 3.12 | Surface MHC-I (Fig. 1b) (B16-F10 cells [1]; IFNg 0.30 ng/ml, replicate 3): 5512 | Surface MHC-I relative to Parental (Fig. 1c) (B16-F10 cells [1]; IFNg 0.30 ng/ml, replicate 3): 2.33 | Surface MHC-I (Fig. 1b) (B16-F10 cells [1]; IFNg 0.30 ng/ml, replicate 4): 7772 | Surface MHC-I relative to Parental (Fig. 1c) (B16-F10 cells [1]; IFNg 0.30 ng/ml, replicate 4): 2.83 | Surface MHC-I (Fig. 1b) (B16-F10 cells [1]; IFNg 1.00 ng/ml, replicate 1): 6610 | Surface MHC-I relative to Parental (Fig. 1c) (B16-F10 cells [1]; IFNg 1.00 ng/ml, replicate 1): 2.73 | Surface MHC-I (Fig. 1b) (B16-F10 cells [1]; IFNg 1.00 ng/ml, replicate 2): 4959 | Surface MHC-I relative to Parental (Fig. 1c) (B16-F10 cells [1]; IFNg 1.00 ng/ml, replicate 2): 2.67 | Surface MHC-I (Fig. 1b) (B16-F10 cells [1]; IFNg 1.00 ng/ml, replicate 3): 6900 | Surface MHC-I relative to Parental (Fig. 1c) (B16-F10 cells [1]; IFNg 1.00 ng/ml, replicate 3): 2.19 | Surface MHC-I (Fig. 1b) (B16-F10 cells [1]; IFNg 1.00 ng/ml, replicate 4): 9888 | Surface MHC-I relative to Parental (Fig. 1c) (B16-F10 cells [1]; IFNg 1.00 ng/ml, replicate 4): 2.56 | Surface MHC-I (Fig. 1b) (B16-F10 cells [1]; IFNg Nil, replicate 1): 267 | Surface MHC-I relative to Parental (Fig. 1c) (B16-F10 cells [1]; IFNg Nil, replicate 1): 0.97 | Surface MHC-I (Fig. 1b) (B16-F10 cells [1]; IFNg Nil, replicate 2): 322 | Surface MHC-I relative to Parental (Fig. 1c) (B16-F10 cells [1]; IFNg Nil, replicate 2): 1.05 | Surface MHC-I (Fig. 1b) (B16-F10 cells [1]; IFNg Nil, replicate 3): 345 | Surface MHC-I relative to Parental (Fig. 1c) (B16-F10 cells [1]; IFNg Nil, replicate 3): 1.07 | Surface MHC-I (Fig. 1b) (B16-F10 cells [1]; IFNg Nil, replicate 4): 296 | Surface MHC-I relative to Parental (Fig. 1c) (B16-F10 cells [1]; IFNg Nil, replicate 4): 1.15 | PSMB8 (Fig. 1e) (B16-F10 cells [2]; IFNg 0.01 ng/ml): 171356 | PSMB9 (Fig. 1e) (B16-F10 cells [2]; IFNg 0.01 ng/ml): 214373 | PSMB10 (Fig. 1e) (B16-F10 cells [2]; IFNg 0.01 ng/ml): 83490 | STAT1 (Fig. 1e) (B16-F10 cells [2]; IFNg 0.01 ng/ml): 156019 | PSMB8 (Fig. 1e) (B16-F10 cells [2]; IFNg 0.03 ng/ml): 202198 | PSMB9 (Fig. 1e) (B16-F10 cells [2]; IFNg 0.03 ng/ml): 947224 | PSMB10 (Fig. 1e) (B16-F10 cells [2]; IFNg 0.03 ng/ml): 557217 | STAT1 (Fig. 1e) (B16-F10 cells [2]; IFNg 0.03 ng/ml): 430481 | PSMB8 (Fig. 1e) (B16-F10 cells [2]; IFNg 0.10 ng/ml): 232103 | PSMB9 (Fig. 1e) (B16-F10 cells [2]; IFNg 0.10 ng/ml): 2077116 | PSMB10 (Fig. 1e) (B16-F10 cells [2]; IFNg 0.10 ng/ml): 2055449 | STAT1 (Fig. 1e) (B16-F10 cells [2]; IFNg 0.10 ng/ml): 714350 | PSMB8 (Fig. 1e) (B16-F10 cells [2]; IFNg 0.30 ng/ml): 334603 | PSMB9 (Fig. 1e) (B16-F10 cells [2]; IFNg 0.30 ng/ml): 3663399 | PSMB10 (Fig. 1e) (B16-F10 cells [2]; IFNg 0.30 ng/ml): 3429074 | STAT1 (Fig. 1e) (B16-F10 cells [2]; IFNg 0.30 ng/ml): 1243340 | PSMB8 (Fig. 1e) (B16-F10 cells [2]; IFNg 1.00 ng/ml): 529221 | PSMB9 (Fig. 1e) (B16-F10 cells [2]; IFNg 1.00 ng/ml): 4935730 | PSMB10 (Fig. 1e) (B16-F10 cells [2]; IFNg 1.00 ng/ml): 4476630 | STAT1 (Fig. 1e) (B16-F10 cells [2]; IFNg 1.00 ng/ml): 1537016 | PSMB8 (Fig. 1e) (B16-F10 cells [2]; IFNg Nil): 173338 | PSMB9 (Fig. 1e) (B16-F10 cells [2]; IFNg Nil): 17374 | PSMB10 (Fig. 1e) (B16-F10 cells [2]; IFNg Nil): 18816 | STAT1 (Fig. 1e) (B16-F10 cells [2]; IFNg Nil): 22848

From publication PMC9388626, “STUB1 is an intracellular checkpoint for interferon gamma sensing” (Scientific Reports, 2022)
